# Test results from patent publication US20080306076A1, “MODULATION OF CHEMOSENSORY RECEPTORS AND LIGANDS ASSOCIATED THEREWITH” (SENOMYX, INC., priority 2007, published 2008).
# Molecular target: T1, hT1R1 E301A (Homo sapiens, UniProt Q7RTX1, E301A)
# T1 construct: expressed in transfected cells; host or cells: HEK293, transient transfection
# T1 sequence (Q7RTX1 21-841 E301A): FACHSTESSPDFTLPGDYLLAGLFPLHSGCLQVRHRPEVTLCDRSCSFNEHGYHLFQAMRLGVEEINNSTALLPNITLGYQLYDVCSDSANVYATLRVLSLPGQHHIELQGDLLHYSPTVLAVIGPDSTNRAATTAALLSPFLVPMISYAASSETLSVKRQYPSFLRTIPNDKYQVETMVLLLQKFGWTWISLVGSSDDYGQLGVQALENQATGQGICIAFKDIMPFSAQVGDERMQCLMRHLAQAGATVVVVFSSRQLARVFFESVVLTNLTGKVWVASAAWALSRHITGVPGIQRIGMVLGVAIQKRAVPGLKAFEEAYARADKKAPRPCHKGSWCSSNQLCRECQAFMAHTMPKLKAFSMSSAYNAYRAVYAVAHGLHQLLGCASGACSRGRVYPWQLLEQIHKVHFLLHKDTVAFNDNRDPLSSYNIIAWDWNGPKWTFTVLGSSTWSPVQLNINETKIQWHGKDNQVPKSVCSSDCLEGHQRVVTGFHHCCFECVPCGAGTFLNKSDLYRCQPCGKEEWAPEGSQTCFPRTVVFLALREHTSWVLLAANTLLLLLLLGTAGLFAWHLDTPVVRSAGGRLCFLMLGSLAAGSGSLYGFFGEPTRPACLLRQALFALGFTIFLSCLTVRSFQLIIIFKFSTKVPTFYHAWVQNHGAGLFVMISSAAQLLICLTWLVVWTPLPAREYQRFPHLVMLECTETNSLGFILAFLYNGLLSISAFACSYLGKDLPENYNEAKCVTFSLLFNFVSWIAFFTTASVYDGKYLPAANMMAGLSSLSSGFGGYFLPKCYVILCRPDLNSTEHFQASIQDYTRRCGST
# T1 sequence (Q923K1 21-858 partner): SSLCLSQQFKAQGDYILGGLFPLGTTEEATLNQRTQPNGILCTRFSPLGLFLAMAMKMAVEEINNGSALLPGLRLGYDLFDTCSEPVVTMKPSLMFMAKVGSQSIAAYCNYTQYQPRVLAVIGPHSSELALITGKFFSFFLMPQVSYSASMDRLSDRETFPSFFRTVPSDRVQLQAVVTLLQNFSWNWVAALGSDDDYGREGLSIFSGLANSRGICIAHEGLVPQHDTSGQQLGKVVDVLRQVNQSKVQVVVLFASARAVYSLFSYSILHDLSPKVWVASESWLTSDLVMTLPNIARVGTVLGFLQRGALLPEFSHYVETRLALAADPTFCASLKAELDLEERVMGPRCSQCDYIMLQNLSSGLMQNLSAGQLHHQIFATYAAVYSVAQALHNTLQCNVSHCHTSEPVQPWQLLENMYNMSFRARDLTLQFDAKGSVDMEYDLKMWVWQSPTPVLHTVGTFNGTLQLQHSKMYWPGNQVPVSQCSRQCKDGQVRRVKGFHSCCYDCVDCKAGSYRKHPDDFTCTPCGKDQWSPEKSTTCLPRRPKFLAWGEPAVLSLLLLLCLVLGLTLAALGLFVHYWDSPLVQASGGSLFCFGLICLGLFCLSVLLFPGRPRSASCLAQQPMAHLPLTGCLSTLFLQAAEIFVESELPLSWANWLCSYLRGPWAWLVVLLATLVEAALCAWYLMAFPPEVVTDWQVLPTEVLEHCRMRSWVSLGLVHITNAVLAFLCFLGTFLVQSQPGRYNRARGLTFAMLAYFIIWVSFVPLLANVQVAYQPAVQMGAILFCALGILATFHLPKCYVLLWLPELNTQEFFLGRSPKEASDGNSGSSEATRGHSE
# Assay: Mutagenesis study, hT1R1 mutant E301A
# Type: cell-based
# Conditions: E301 mutant, FIG. 11
# Source text: In order to further define the interaction sites of umami stimuli, we performed site-directed mutagenesis on human T1R1 VFT. The mutagenesis was done using the routine PCR-based method. […] were transiently transfected into HEK293 cell together with the rat T1R3 wild type cDNA, and the transfected cells were characterized using an automated FLIPR machine or a calcium imaging system as described in our previous patent applications.
smiles,measurement,value
"N[C@@H](CCC(=O)O)C(=O)O [L-Glu, L-glutamate]",activity against L-Glu,significant reduced activity
